# Data taken from US20240199649A1 (Biosplice Therapeutics, Inc., priority 2022, published 2024).
# Molecular target: recombinant DYRK1A kinase (Homo sapiens (Human), UniProt Q13627)
# Assay: DYRK1A kinase assay (Ser/Thr 18 peptide Z-lyte FRET assay)
# Type: biochemical
# Conditions: DYRK1A 0.25 μg/mL, ATP 15 μM, Ser/Thr peptide 18 4 μM; one hour at room temperature; 11-point dose-response, duplicate
# Description: Representative compounds were screened using the assay procedure for DYRK1A kinase activity as described below.
# Each compound was dissolved in DMSO as a 10 mM stock and used to prepare compound source plates.
# This is a non-radioactive assay using fluorescence resonance energy transfer (FRET) between coumarin and fluorescein to detect kinase activity which is represented as a ratio of coumarin emission/fluorescein emission.
# The mixture was allowed to incubate with the representative compounds for one hour at room temperature. All reactions were performed in duplicate. Unphosphorylated (“0% Control”) and phosphorylated (“100% control”) forms of Ser/Thr 18 served as control reactions. Additionally, an 11-point dose-response curve of Staurosporine (1 uM top) was run to serve as a positive compound control.
# After incubation, Development Reagent A was diluted in Development Buffer then added to the reaction and allowed to further incubate for one hour at room temperature.
# Dose-response curves were generated, and inhibitory concentration (IC50) values were calculated using non-linear regression curve fit in the Dotmatics' Studies Software (Bishops Stortford, UK).
row,IC50 [nM],Compound
1,1.7,"CNc1nc(N[C@H]2CCN(C3COC3)CC2(F)F)nn2ccc(-c3ccc4nc(C)n(CC(F)F)c4n3)c12 [Compound 217, (S)—N^2-(3,3-Difluoro-1-(oxetan-3-yl)piperidin-4-yl)-5-(3-(2,2-difluoroethyl)-2-methyl-3H-imidazo[4,5-b]pyridin-5-yl)-N^4-methylpyrrolo[2,1-f][1,2,4]triazine-2,4-diamine]"
2,14.2,"CNc1nc(NC2(C)CCOCC2)nn2ccc(-c3ccc4nc(C)n(CC(F)F)c4n3)c12 [Compound 218, 5-(3-(2,2-Difluoroethyl)-2-methyl-3H-imidazo[4,5-b]pyridin-5-yl)-N^4-methyl-N^2-(4-methyltetrahydro-2H-pyran-4-yl)pyrrolo[2,1-f][1,2,4]triazine-2,4-diamine]"
3,6.7,"CNc1nc(N[C@@H]2[C@@H]3CNC[C@@H]32)nn2ccc(-c3ccc4nc(C)n(CC(F)F)c4n3)c12 [Compound 219, N^2-((1R,5S,6r)-3-Azabicyclo[3.1.0]hexan-6-yl)-5-(3-(2,2-difluoroethyl)-2-methyl-3H-imidazo[4,5-b]pyridin-5-yl)-N^4-methylpyrrolo[2,1-f][1,2,4]triazine-2,4-diamine]"
4,9.7,"CNc1nc(N[C@@H]2[C@@H]3CN(C(C)=O)C[C@@H]32)nn2ccc(-c3ccc4nc(C)n(CC(F)F)c4n3)c12 [Compound 220, 1-((1R,5S,6r)-6-((5-(3-(2,2-Difluoroethyl)-2-methyl-3H-imidazo[4,5-b]pyridin-5-yl)-4-(methylamino)pyrrolo[2,1-f][1,2,4]triazin-2-yl)amino)-3-azabicyclo[3.1.0]hexan-3-yl)ethan-1-one]"
5,1.6,"CNc1nc(N[C@H]2[C@@H]3COC[C@@H]32)nn2ccc(-c3ccc4nc(C)n(CC(F)F)c4n3)c12 [Compound 221, N^2-((1R,5S,6r)-3-Oxabicyclo[3.1.0]hexan-6-yl)-5-(3-(2,2-difluoroethyl)-2-methyl-3H-imidazo[4,5-b]pyridin-5-yl)-N^4-methylpyrrolo[2,1-f][1,2,4]triazine-2,4-diamine]"
6,4.1,"CNc1nc(N[C@@H]2[C@@H]3COC[C@@H]32)nn2ccc(-c3ccc4nc(C)n(CC(F)F)c4n3)c12 [Compound 222, N^2-((1R,5S,6s)-3-Oxabicyclo[3.1.0]hexan-6-yl)-5-(3-(2,2-difluoroethyl)-2-methyl-3H-imidazo[4,5-b]pyridin-5-yl)-N^4-methylpyrrolo[2,1-f][1,2,4]triazine-2,4-diamine]"
7,1.1,"CNc1nc(NC2CC3(CCN(C(C)=O)CC3)C2)nn2ccc(-c3ccc4nc(C)n(CC(F)F)c4n3)c12 [Compound 223, 1-(2-((5-(3-(2,2-Difluoroethyl)-2-methyl-3H-imidazo[4,5-b]pyridin-5-yl)-4-(methylamino)pyrrolo[2,1-f][1,2,4]triazin-2-yl)amino)-7-azaspiro[3.5]nonan-7-yl)ethan-1-one]"
8,0.2,"CNc1nc(NC2CCC3(CC2)CN(C(C)=O)C3)nn2ccc(-c3ccc4nc(C)n(CC(F)F)c4n3)c12 [Compound 224, 1-(7-((5-(3-(2,2-Difluoroethyl)-2-methyl-3H-imidazo[4,5-b]pyridin-5-yl)-4-(methylamino)pyrrolo[2,1-f][1,2,4]triazin-2-yl)amino)-2-azaspiro[3.5]nonan-2-yl)ethan-1-one]"
9,0.8,"CNc1nc(NC2CCC3(CC2)COC3)nn2ccc(-c3ccc4nc(C)n(CC(F)F)c4n3)c12 [Compound 225, 5-(3-(2,2-Difluoroethyl)-2-methyl-3H-imidazo[4,5-b]pyridin-5-yl)-N^4-methyl-N^2-(2-oxaspiro[3.5]nonan-7-yl)pyrrolo[2,1-f][1,2,4]triazine-2,4-diamine]"
10,2,"CNc1nc(N[C@H]2CC[C@@]3(CCO3)CC2)nn2ccc(-c3ccc4nc(C)n(CC(F)F)c4n3)c12 [Compound 226, 5-(3-(2,2-Difluoroethyl)-2-methyl-3H-imidazo[4,5-b]pyridin-5-yl)-N^4-methyl-N^2-((4r,7r)-1-oxaspiro[3.5]nonan-7-yl)pyrrolo[2,1-f][1,2,4]triazine-2,4-diamine]"
11,3.3,"CNc1nc(N[C@H]2CC[C@]3(CCO3)CC2)nn2ccc(-c3ccc4nc(C)n(CC(F)F)c4n3)c12 [Compound 227, 5-(3-(2,2-Difluoroethyl)-2-methyl-3H-imidazo[4,5-b]pyridin-5-yl)-N^4-methyl-N^2-((4s,7s)-1-oxaspiro[3.5]nonan-7-yl)pyrrolo[2,1-f][1,2,4]triazine-2,4-diamine]"
12,2.8,"CNc1nc(NC2C3CCC2CN(C)C3)nn2ccc(-c3ccc4nc(C)n(CC(F)F)c4n3)c12 (stereo not drawn) [Compound 228, 5-(3-(2,2-Difluoroethyl)-2-methyl-3H-imidazo[4,5-b]pyridin-5-yl)-N^4-methyl-N^2-(3-methyl-3-azabicyclo[3.2.1]octan-8-yl)pyrrolo[2,1-f][1,2,4]triazine-2,4-diamine]"
13,2.2,"CNc1nc(N[C@@H]2CCNCC2(F)F)nn2ccc(-c3ccn4nccc4n3)c12 [Compound 339, (R)—N^2-(3,3-Difluoropiperidin-4-yl)-N^4-methyl-5-(pyrazolo[1,5-a]pyrimidin-5-yl)pyrrolo[2,1-f][1,2,4]triazine-2,4-diamine]"
14,365,"CNc1nc(N[C@@H]2CCN(C3COC3)CC2(F)F)nn2ccc(-c3ccc4ncn(CC(F)F)c4n3)c12 [Compound 351, (R)—N^2-(3,3-Difluoro-1-(oxetan-3-yl)piperidin-4-yl)-5-(3-(2,2-difluoroethyl)-3H-imidazo[4,5-b]pyridin-5-yl)-N^4-methylpyrrolo[2,1-f][1,2,4]triazine-2,4-diamine]"
15,4.2,"CNc1nc(N[C@H]2C[C@H](C(C)(C)O)C2)nn2ccc(-c3ccc4nc(C)n(CC(F)F)c4n3)c12 [Compound 355, 2-(trans-3-((5-(3-(2,2-Difluoroethyl)-2-methyl-3H-imidazo[4,5-b]pyridin-5-yl)-4-(methylamino)pyrrolo[2,1-f][1,2,4]triazin-2-yl)amino)cyclobutyl)propan-2-ol]"
16,2.1,"CNc1nc(N[C@H]2CN(C)CC2(F)F)nn2ccc(-c3ccc4nc(C)n(CC(F)F)c4n3)c12 [Compound 363, (S)—N^2-(4,4-Difluoro-1-methylpyrrolidin-3-yl)-5-(3-(2,2-difluoroethyl)-2-methyl-3H-imidazo[4,5-b]pyridin-5-yl)-N^4-methylpyrrolo[2,1-f][1,2,4]triazine-2,4-diamine]"
17,0.6,"CNc1nc(N[C@@H]2CN(C)CC2(F)F)nn2ccc(-c3ccc4nc(C)n(CC(F)F)c4n3)c12 [Compound 364, (R)—N^2-(4,4-Difluoro-1-methylpyrrolidin-3-yl)-5-(3-(2,2-difluoroethyl)-2-methyl-3H-imidazo[4,5-b]pyridin-5-yl)-N^4-methylpyrrolo[2,1-f][1,2,4]triazine-2,4-diamine]"
18,6.3,"CCN1C[C@H](Nc2nc(NC)c3c(-c4ccc5nc(C)n(CC(F)F)c5n4)ccn3n2)C(F)(F)C1 [Compound 365, (S)-5-(3-(2,2-Difluoroethyl)-2-methyl-3H-imidazo[4,5-b]pyridin-5-yl)-N^2-(1-ethyl-4,4-difluoropyrrolidin-3-yl)-N^4-methylpyrrolo[2,1-f][1,2,4]triazine-2,4-diamine]"
19,1.4,"CCN1C[C@@H](Nc2nc(NC)c3c(-c4ccc5nc(C)n(CC(F)F)c5n4)ccn3n2)C(F)(F)C1 [Compound 366, (R)-5-(3-(2,2-Difluoroethyl)-2-methyl-3H-imidazo[4,5-b]pyridin-5-yl)-N^2-(1-ethyl-4,4-difluoropyrrolidin-3-yl)-N^4-methylpyrrolo[2,1-f][1,2,4]triazine-2,4-diamine]"
20,6.4,"CNc1nc(N[C@H]2CN(C3COC3)CC2(F)F)nn2ccc(-c3ccc4nc(C)n(CC(F)F)c4n3)c12 [Compound 367, (S)—N^2-(4,4-difluoro-1-(oxetan-3-yl)pyrrolidin-3-yl)-5-(3-(2,2-difluoroethyl)-2-methyl-3H-imidazo[4,5-b]pyridin-5-yl)-N^4-methylpyrrolo[2,1-f][1,2,4]triazine-2,4-diamine]"
21,1.2,"CNc1nc(N[C@@H]2CN(C3COC3)CC2(F)F)nn2ccc(-c3ccc4nc(C)n(CC(F)F)c4n3)c12 [Compound 368, (R)—N^2-(4,4-Difluoro-1-(oxetan-3-yl)pyrrolidin-3-yl)-5-(3-(2,2-difluoroethyl)-2-methyl-3H-imidazo[4,5-b]pyridin-5-yl)-N^4-methylpyrrolo[2,1-f][1,2,4]triazine-2,4-diamine]"
22,2.9,"CNc1nc(NC2CCN(CCF)CC2)nn2ccc(-c3ccc4nc(C)n(CC(F)F)c4n3)c12 [Compound 369, 5-(3-(2,2-Difluoroethyl)-2-methyl-3H-imidazo[4,5-b]pyridin-5-yl)-N^2-(1-(2-fluoroethyl)piperidin-4-yl)-N^4-methylpyrrolo[2,1-f][1,2,4]triazine-2,4-diamine]"
23,15.5,"CNc1nc(NC2CCN(CC(F)(F)F)CC2)nn2ccc(-c3ccc4nc(C)n(CC(F)F)c4n3)c12 [Compound 370, 5-(3-(2,2-Difluoroethyl)-2-methyl-3H-imidazo[4,5-b]pyridin-5-yl)-N^4-methyl-N^2-(1-(2,2,2-trifluoroethyl)piperidin-4-yl)pyrrolo[2,1-f][1,2,4]triazine-2,4-diamine]"
24,2.2,"CNc1nc(NC2CCN(C3CC(F)(F)C3)CC2)nn2ccc(-c3ccc4nc(C)n(CC(F)F)c4n3)c12 [Compound 371, N^2-(1-(3,3-Difluorocyclobutyl)piperidin-4-yl)-5-(3-(2,2-difluoroethyl)-2-methyl-3H-imidazo[4,5-b]pyridin-5-yl)-N^4-methylpyrrolo[2,1-f][1,2,4]triazine-2,4-diamine]"
